Measured values: patent US6406679B1, “Use of HL-60-related lectins in drug delivery and detection of lectin-expressing cells” (Incyte Pharmaceuticals, Inc., priority 1992, dated 2002)
Several values for one entry are separate records, joined by “and”; a condition that tells them apart may be missing. Equal values may be shown once.

Experiments:
[1] = system: Rat lymph node lymphocytes; experiment: Agglutination of cells treated with lectin; assay type: cell-based; details: 250 μg/ml lectin, on ice 30 min
Description: (§1) To analyze the mechanism of action of the inventive lectins as immunomodulators, a test was devised to discover whether these lectins bind lymphocytes and/or T-cells to endothelial cells. Thin sections of tissue containing inflamed rat brain vascular endothelium were prepared. Rat lymph node lymphocytes and human T-cells of the Jurkat line (10^7/ml in Dulbecco's modified Eagle medium (MEM) with 5% fetal bovine serum (FBS)) were treated with 250 μg/ml of the lectin of Example 1, with the lectin plus 1 mM beta-lactose, or with no additions and subsequently were placed on ice for 30 min. […] These effects were not observed when beta-lactose was added or when there were no additions.

[2] = system: human T-cells of the Jurkat line; experiment: Agglutination of cells treated with lectin; assay type: cell-based; details: 250 μg/ml lectin, on ice 30 min
Description: as §1

[3] = system: T-cell lines MOLT4 and ARR on thymic epithelial cells; experiment: Binding of cultured T-cells to thymic epithelial cells (DPM); assay type: cell-based, human; details: lectin-treated T-cells with terminal galactose residues, FIG. 4
Description: The effects of the lectin on the binding of cultured T-cells to thymic epithelial cells were further tested according to the protocol of Singer et al., (Proc. Natl. Acad. Sci. (1986) 83:6588-92). T-cell lines MOLT4 and ARR (a T-cell line with sialic-acid-terminating glycoproteins) were incubated with tritiated thymidine. Next, the cells were treated with neuraminidase (which cleaves terminal sialic acids from the glycoproteins on ARR cells and leaves terminal galactose), galactosidase, endolactosaminidase or no enzyme. After this step, they cells were incubated with and without lectin. All the treatment and control groups of T-cells were layered over thymic epithelial cells, incubated and washed as described in Singer et al. Lastly, the amount of bound T-cells was quantitated by […] per minute (DPM).

BALB/c and C57B/6 mice = experiment: Experimental autoimmune myasthenia gravis (EAMG): clinical signs of neuromuscular dysfunction; assay type: in vivo, mouse
From the text: Experimental autoimmune myasthenia gravis (EAMG) is an antibody-mediated autoimmune disease responding to acetylcholine receptors (AChR). This condition in mice is a recognized model for studying the effects of the autoimmune response on neuromuscular transmission (Levi, G. et al., Eur. J. Immunol. (1983) 13:500-507; Lefvert, A. K. et al., Scand. J. Immunol. (1978) 8:525; Lefvert, A. K. et al., J. Neuro. Immunol. (1985) 9:41; Lefvert, A. K. et al., Eur. J. Immunol. (1982) 12:790). It appears that myasthenia gravis is mediated by T helper cells, which produce acetylcholine receptor antibodies. The disease is induced in mice by injection of acetylcholine receptor. The acetylcholine receptor is obtained from the electric organ of the ray Torpedo marmorata and purified by affinity chromatography on Naja naja siamensis neurotoxin crosslinked to Sephadex.
Young adult female BALB/c and C57B/6 mice (2-4 months of age) were used because they differ in EAMG susceptibility. The mice were injected subcutaneously with 10 μg of purified acetylcholine receptor, in Freund's complete adjuvant without and with the 14 kD-β-gal lectin.
Blood was obtained after 3 days and after 1, 2, 3 and 4 weeks. To follow the development of the disease, the mice were observed daily for signs of neuromuscular dysfunction and after 10 days subjected to forced exercise using repetitive grasping, swimming and inverted hang. These exercises were repeated after warming under a heat lamp at 35° C. for 5 min.

lymph node cells = experiment: Response of lymph node cells to the lectin (mitogenicity); assay type: cell-based, rat; details: data not shown
established T-cell lines = experiment: Lectin added to established T-cell lines; assay type: cell-based, rat; details: lectin added in vitro
From the text: In a follow-up experiment, T-cell lines were selected from the draining lymph nodes.

Lewis rats = experiment: Skin allografts (Brown Norway skin on Lewis rats); assay type: in vivo, rat; parameters: key to Hair Growth / Hair Growth, Mean + SD column: whether or not (+ or −) hair growth was restored in the tissue; whether or not (+ or −) hair growth was restored in the tissue
Description: The work in this report was done in the laboratory of Drs. Arthur Vandenbark and Halina Offner at the Oregon VA Medical Center. Brown Norway rat skin was transplanted onto the back of Lewis rats. Identical grafts were done on both sides of each animal's back and the results of each side (separated by commas) were shown for each parameter in Tables 9 and 10. […] A 250 μg/animal dose of lectin was administered i.v. daily on days 2-17.
The protocols for the studies reported in Tables 9 and 10 differed only in that the lectin was delivered for four additional days up to day 21 (see Table 10).

Spleen Cells = experiment: In vivo effect of lectin on phenotypes of lymphocytes (antibody staining); parameters: species or system rat; details: for % positive / F^L / % CHANGE IN POSITIVES: Spleen Cells
[4] = Day 2 to Day 17, individual animals, first-listed graft side, listed as rIML-1
[5] = Day 2 to Day 17, individual animals, second-listed graft side, listed as rIML-1
[6] = Day 2 to Day 21, individual animals, first-listed graft side, listed as rIML-1
[7] = Day 2 to Day 21, individual animals, second-listed graft side, listed as rIML-1
[8] = antibody IgG, lectin-treated rats

## Lectin: Soluble 14 kD β-galactoside-binding HL-60/placenta lectin of FIG. 1 (SEQ ID NO:2), prepared recombinantly in E. coli
[1]
  Clumping of rat lymphocytes: moderately clumped
[2]
  Agglutination of T-cells: severely agglutinated
[3]
  Binding of T-cells to thymic epithelial cells: appreciably bound
BALB/c and C57B/6 mice; BALB/c, Receptor + 2.5 μg Lectin s.c.
  Mice Showing Clinical Signs of Neuromuscular Dysfunction (%): 18%
BALB/c and C57B/6 mice; BALB/c, Receptor + 12 μg Lectin s.c.
  Mice Showing Clinical Signs of Neuromuscular Dysfunction (%): 4%
BALB/c and C57B/6 mice; C57B/6, Receptor + 2.5 μg Lectin s.c.
  Mice Showing Clinical Signs of Neuromuscular Dysfunction (%): 59%
BALB/c and C57B/6 mice; C57B/6, Receptor + 12 μg Lectin s.c.
  Mice Showing Clinical Signs of Neuromuscular Dysfunction (%): 11%
BALB/c and C57B/6 mice; both strains, higher lectin dose levels
  neuromuscular deterioration: markedly slowed
Lymph node cells
  mitogenicity for lymph node cells: not mitogenic
Established T-cell lines
  effect on established T-cell lines: no inhibitory effect
Lewis rats; 250 μg/animal i.v. daily days 2-17, versus control
  delay of rejection of the grafts: 7 days
Lewis rats; Day 2 to Day 17
  Rejection (on day), Mean ± SD: 17 ± 2 days
Lewis rats; [4]
  Degeneration (on day): 15 day and 11, day and 14 day
  Hair Growth: +, + (3×) and − and +
  Rejection (on day): 16 day and 13, day and 16, day and 18, day (2×)
Lewis rats; [5]
  Degeneration (on day): 16 day (2×) and 13 day
  Hair Growth: +, + (3×) and +
  Rejection (on day): 17 day and 15 day and 16 day and 18 day (2×)
Lewis rats; Day 2 to Day 17, individual animals, listed as rIML-1
  Histology: 0
Lewis rats; Day 2 to Day 21
  Degeneration (on day), Mean + SD: 17 ± 2 days
  Hair Growth, Mean + SD column: +
  Rejection (on day), Mean + SD: 19 ± 2 days
Lewis rats; [6]
  Degeneration (on day): 15 day (3×) and 18, 18 day and 17 day and 18 day
  Hair Growth: +, + (5×) and −
  Rejection (on day): 18 day (2×) and 19, 19 day and 21, 21 day and 17 day and 19 day
Lewis rats; [7]
  Degeneration (on day): 19 day (3×) and 18 day and 18, 18 day and 11 day
  Hair Growth: +, + (5×) and +
  Rejection (on day): 23 day and 19, 19 day and 21, 21 day and 13 day and 20 day and 22 day
Spleen Cells; antibody 0X6
  % positive: 15.6%
  F^L: 375
Spleen Cells; antibody 0X6, lectin vs control
  % CHANGE IN POSITIVES: 0%
Spleen Cells; antibody 0X8
  % positive: 41.2%
Spleen Cells; antibody 0X8 (suppressor T-cells)
  F^L: 323
Spleen Cells; antibody 0X8, lectin vs control
  % CHANGE IN POSITIVES: +32%
Spleen Cells; antibody 0X12
  % positive: 15.4%
  F^L: 363
Spleen Cells; antibody 0X12, lectin vs control
  % CHANGE IN POSITIVES: 0%
Spleen Cells; [8]
  % positive: 24.3%
  F^L: 129
Spleen Cells; antibody W3/13
  % positive: 85.9%
Spleen Cells; antibody W3/13 (total T-cells)
  F^L: 311
Spleen Cells; antibody W3/13, lectin vs control
  % CHANGE IN POSITIVES: −19%
Spleen Cells; antibody W3/25
  % positive: 67.2%
Spleen Cells; antibody W3/25 (helper T-cells)
  F^L: 161
Spleen Cells; antibody W3/25, lectin vs control
  % CHANGE IN POSITIVES: −24%
Spleen Cells; lectin-treated animals
  decrease in the numbers of spleen helper T-cells (w3/25 antibody reactive): 19%
  decrease in the numbers of spleen total T-cells (w3/13 antibody reactive): 24%
  increase in the number of spleen suppressor T-cells: 32%
